In patent publication US9265268B2, “Method of handling bananas” (priority 2009, dated 2016):

How the values were obtained:
bananas [1] = test: Example US-4: placement into MAP after exposure to 1-MCP; assay type: in vivo, Musa; details: 1000 ppb, Day #8
Source text: Bananas were harvested and shipped to Ephrata, Pa. as in Example US-1 above. The bananas were also ripened as in Example US-1, except that the bananas remained in the bags in which they were shipped (poly liners) throughout the ripening process. Some of the poly liners were exposed to 1-MCP (1000 ppb) as in Example US-1 above, while others were not. Immediately after the conclusion of the exposure to 1-MCP, bananas were removed from the poly liners, divided into bunches. Some bunches had approximately of 1.4 kg (3 lb) and were placed into T-bags as described above. Other bunches were approximately 18 kg (40 lb) and were placed into MAP type D-40 as described above, using standard layering technique that interposes layers of the bag in between layers of bananas. Then the bananas were stored and evaluated as in Example US-1. Also, the bananas were eaten, and the firmness of the pulp was evaluated along with the overall quality of the eating experience.

bananas [2] = test: Example 2A: evaluation process A (4 days post-MCP in bag at 14° C., then 7 days at approx. 22° C.); assay type: in vivo, Musa; details: for Color Stage (mean) / Sugar Spots (mean %): 4 days in bag at 14° C., then 7 days at approx. 22° C.
Source text: The color of banana peels is rated according to a seven stage rating scale: stage 1 (dark green); stage 2 (all light green); stage 3 (half green and half yellow); stage 4 (more yellow than green); stage 5 (green tips and necks); stage 6 (all yellow; maybe light green necks, no green tips); stage 7 (yellow flecked with brown). Consumers generally prefer to eat bananas in stage 5 or stage 6.
Bananas were harvested at 13 weeks of age. Fruit bunches were separated into hands, then washed, and excess latex was removed in chlorinated water tanks using standard commercial practices. The washed hands of bananas were further broken into clusters and treated with fungicide. Clusters were placed into plastic bags; each bag held approximately 1.4 kg (3 lbs) of bananas. The bananas remained in these bags until they were removed for evaluation (see below).
The plastic bags were either T bags or were modified-atmosphere bags (“MAP” bags). The T bags (also called “PE bags” herein) were typical of bags normally used in commerce for bananas. The bags were then placed into cartons. Each carton held 13 bags. Each carton either held MAP bags only or else held PE bags only. 20 cartons of MAP bags and 20 cartons of PE bags were prepared.
The cartons were placed in a refrigerated truck and transported to a storage facility. The distance from harvest to storage was approximately 100 km. The temperature in the refrigerated truck was 14 to 18° C. To simulate the effect of shipping over long distances, the cartons were placed in conventional cold storage room at 14° C. for two weeks. In storage, the cartons were placed so that air could circulate between and around each carton.
After the storage period, the thermostat of the holding room was raised to 18° C., and no further action was taken until the holding room was at 18° C. for 12 hours. Bananas were ripened using a 5-day schedule, as follows. The temperatures shown are pulp temperatures; if necessary, the thermostat was lowered so that pulp temperature remained at the desired temperature despite any respiration that may be taking place in the bananas.
On day 5 at approximately 4 pm, the cartons were divided in to seven groups: one untreated control (“UTC”) group (6 cartons) and six treatment groups. Each group had equal number of PE cartons and MAP cartons. The six treatment groups were as follows:
UTC cartons were placed in a shed that had good ventilation. The remaining cartons remained in the holding room. Four airtight tents were erected in the holding room. Each tent held all the cartons for one of the treatment groups PE-3-C, PE-10-C, MAP-3, and MAP-10.
At day 5 at approximately 4 pm, the bananas had reached color stage 2.5 to 3.5. Treatment groups PE-3-C, PE-10-C, MAP-3, and MAP-10 were then exposed to 1-MCP overnight at the concentrations shown above.
Some of the bananas from each group described in Example 2 were evaluated by process “A” as follows: After treatment groups PE-3-C, PE-10-C, MAP-3, and MAP-10 received exposure to 1-MCP, the bananas remained in their bags in the holding room at 14° C. for 4 days; then the bananas were removed from the bags and stored at approximately 22° C. for 7 days; then the bananas were evaluated.

[3] = MAP-10: MAP bag, 1000 ppb 1-MCP
[4] = PE-10-C: PE bag, 1000 ppb 1-MCP

Which results are given for `CC1=CC1` [1-MCP, 1-methylcyclopropene]?
Average color stage (bananas [1]; 1-MCP only (T-bag)): 4.71; Average sugar spot rating (bananas [1]; 1-MCP only (T-bag)): 3; eating experience (bananas [1]; 1-MCP only (T-bag)): mediocre; pulp (bananas [1]; 1-MCP only (T-bag)): soft; Average color stage (bananas [1]; MAP (type D-40) and 1-MCP): 4.42; Average sugar spot rating (bananas [1]; MAP (type D-40) and 1-MCP): 1; eating experience (bananas [1]; MAP (type D-40) and 1-MCP): excellent; pulp (bananas [1]; MAP (type D-40) and 1-MCP): firm; Comments (additional observations) (bananas [2]; MAP-3: MAP bag, 300 ppb 1-MCP): Fruit with excellent bright yellow color. Only high; Delay in sugar spot development longer than MAP-0 (bananas [2]; MAP-3: MAP bag, 300 ppb 1-MCP): at least three; Color Stage (mean) (bananas [2]; MAP-3: MAP bag, 300 ppb 1-MCP): 6.3; Sugar Spots (mean %) (bananas [2]; MAP-3: MAP bag, 300 ppb 1-MCP): 3%; Comments (additional observations) (bananas [2]; [3]): Almost all fruit was at the right color for sale,; Delay in sugar spot development longer than MAP-0 (bananas [2]; [3]): at least three; Color Stage (mean) (bananas [2]; [3]): 6.1; Sugar Spots (mean %) (bananas [2]; [3]): 2%; Comments (additional observations) (bananas [2]; PE-3-C: PE bag, 300 ppb 1-MCP): Some fruit was in a good color stage. However most; Color Stage (mean) (bananas [2]; PE-3-C: PE bag, 300 ppb 1-MCP): 6.8; Sugar Spots (mean %) (bananas [2]; PE-3-C: PE bag, 300 ppb 1-MCP): 35%; Comments (additional observations) (bananas [2]; [4]): Some fruit was in a good color stage. However most; Color Stage (mean) (bananas [2]; [4]): 6.9; Sugar Spots (mean %) (bananas [2]; [4]): 73%
